This passage reports Ki results from publication PMC7006686, “A class of carbonic anhydrase IX/XII – selective carboxylate inhibitors” (Journal of Enzyme Inhibition and Medicinal Chemistry, 2020).

Each structure is given as a SMILES string.

One experiment has as its target T1, hCA II (Homo sapiens, UniProt P00918).
T1 construct: gene CA2; recombinant, obtained in-house; cytosolic isoform
Kind of experiment: stopped-flow CO2 hydrase assay.
Conditions: not given
The format is biochemical. From the text: stopped-flow CO2 hydrase assay on hCA II
Compound `COc1ccc(C=C2SC(=O)N(CC(=O)O)C2=O)cc1` [3f, 2-(5-(4-methoxybenzylidene)-2,4-dioxothiazolidin-3-yl) acetic acid] showed a Ki of over 100 µM.

The compound `O=C(O)CN1C(=O)SC(=Cc2ccccc2Cl)C1=O` [3d, 2-(5-(2-chlorobenzylidene)-2,4-dioxothiazolidin-3-yl)acetic acid] yielded a Ki of over 100 µM.

`O=C(O)CN1C(=O)SC(=Cc2ccccc2)C1=O` [3a, 2-(5-benzylidene-2,4-dioxothiazolidin-3-yl)acetic acid] registered a Ki of over 100 µM.

In the case of `O=C(O)CN1C(=O)SC(=Cc2ccc(Br)cc2)C1=O` [3e, 2-(5-(4-bromobenzylidene)-2,4-dioxothiazolidin-3-yl)acetic acid], the Ki was over 100 µM.

The compound `Cc1ccc(C=C2SC(=O)N(CC(=O)O)C2=O)cc1` [3b] yielded a Ki of over 100 µM.

Regarding `COc1cccc(C=C2SC(=O)N(CC(=O)O)C2=O)c1` [3g, 2-(5-(3-methoxybenzylidene)-2,4-dioxothiazolidin-3-yl) acetic acid], the Ki was over 100 µM.

`O=C(O)CN1C(=O)SC(=Cc2ccc(Cl)cc2)C1=O` [3c, 2-(5-(4-chlorobenzylidene)-2,4-dioxothiazolidin-3-yl)acetic acid] returned a Ki of over 100 µM.

Another experiment deals with T2, hCA XII (Homo sapiens, UniProt O43570).
T2 construct: gene CA12; recombinant, obtained in-house
T2 sequence (O43570 25-354): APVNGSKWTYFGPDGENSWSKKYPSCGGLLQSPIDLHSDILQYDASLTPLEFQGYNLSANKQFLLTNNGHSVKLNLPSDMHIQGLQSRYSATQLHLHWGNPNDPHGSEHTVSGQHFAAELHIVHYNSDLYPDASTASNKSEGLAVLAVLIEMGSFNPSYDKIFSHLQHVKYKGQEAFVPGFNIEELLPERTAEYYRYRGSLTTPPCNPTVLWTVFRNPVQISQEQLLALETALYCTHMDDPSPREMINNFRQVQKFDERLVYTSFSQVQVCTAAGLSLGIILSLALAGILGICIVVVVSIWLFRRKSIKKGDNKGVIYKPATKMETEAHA
Put plainly: stopped-flow CO2 hydrase assay. In kind it is biochemical.
Conditions: not given
An excerpt: stopped-flow CO2 hydrase assay on hCA XII
In turn, `COc1ccc(C=C2SC(=O)N(CC(=O)O)C2=O)cc1` [3f, 2-(5-(4-methoxybenzylidene)-2,4-dioxothiazolidin-3-yl) acetic acid] had a Ki of 0.85 µM.

Turning to `O=C(O)CN1C(=O)SC(=Cc2ccccc2Cl)C1=O` [3d, 2-(5-(2-chlorobenzylidene)-2,4-dioxothiazolidin-3-yl)acetic acid], the Ki worked out at 0.47 µM.

Consider `O=C(O)CN1C(=O)SC(=Cc2ccccc2)C1=O` [3a, 2-(5-benzylidene-2,4-dioxothiazolidin-3-yl)acetic acid], for which the Ki is 0.58 µM.

In turn, `O=C(O)CN1C(=O)SC(=Cc2ccc(Br)cc2)C1=O` [3e, 2-(5-(4-bromobenzylidene)-2,4-dioxothiazolidin-3-yl)acetic acid] came in with a Ki of 0.91 µM.

As for `Cc1ccc(C=C2SC(=O)N(CC(=O)O)C2=O)cc1` [3b], the Ki is 0.93 µM.

Take `COc1cccc(C=C2SC(=O)N(CC(=O)O)C2=O)c1` [3g, 2-(5-(3-methoxybenzylidene)-2,4-dioxothiazolidin-3-yl) acetic acid]: the Ki is 0.3 µM.

Turning to `O=C(O)CN1C(=O)SC(=Cc2ccc(Cl)cc2)C1=O` [3c, 2-(5-(4-chlorobenzylidene)-2,4-dioxothiazolidin-3-yl)acetic acid], the Ki came to 0.66 µM.

For the next experiment, the target named is T3, hCA IX (Homo sapiens, UniProt Q16790).
T3 construct: gene CA9; recombinant, obtained in-house
Kind of experiment: stopped-flow CO2 hydrase assay. To be noted: read-out: hCA I. The format is biochemical. From the text:
stopped-flow CO2 hydrase assay on hCA IX
With `Cc1ccc(C=C2SC(=O)N(CC(=O)O)C2=O)cc1` [3b], the Ki was over 100 µM.

In the case of `COc1cccc(C=C2SC(=O)N(CC(=O)O)C2=O)c1` [3g, 2-(5-(3-methoxybenzylidene)-2,4-dioxothiazolidin-3-yl) acetic acid], the Ki was over 100 µM.

The experiment is the same for the next values; noted with them: read-out: hCA IX.
`COc1ccc(C=C2SC(=O)N(CC(=O)O)C2=O)cc1` [3f, 2-(5-(4-methoxybenzylidene)-2,4-dioxothiazolidin-3-yl) acetic acid]: the Ki amounted to 3.2 µM.

In the case of `O=C(O)CN1C(=O)SC(=Cc2ccccc2Cl)C1=O` [3d, 2-(5-(2-chlorobenzylidene)-2,4-dioxothiazolidin-3-yl)acetic acid], the Ki stood at 24.1 µM.

On to `O=C(O)CN1C(=O)SC(=Cc2ccccc2)C1=O` [3a, 2-(5-benzylidene-2,4-dioxothiazolidin-3-yl)acetic acid], for which the Ki was 22.2 µM.

For `O=C(O)CN1C(=O)SC(=Cc2ccc(Br)cc2)C1=O` [3e, 2-(5-(4-bromobenzylidene)-2,4-dioxothiazolidin-3-yl)acetic acid], the Ki amounted to 33.3 µM.

Take `O=C(O)CN1C(=O)SC(=Cc2ccc(Cl)cc2)C1=O` [3c, 2-(5-(4-chlorobenzylidene)-2,4-dioxothiazolidin-3-yl)acetic acid]: the Ki worked out at 3.1 µM.

For a further experiment, the target named is T4, hCA I (Homo sapiens, UniProt P00915).
T4 construct: gene CA1; recombinant, obtained in-house; cytosolic isoform
T4 sequence (P00915 2-261): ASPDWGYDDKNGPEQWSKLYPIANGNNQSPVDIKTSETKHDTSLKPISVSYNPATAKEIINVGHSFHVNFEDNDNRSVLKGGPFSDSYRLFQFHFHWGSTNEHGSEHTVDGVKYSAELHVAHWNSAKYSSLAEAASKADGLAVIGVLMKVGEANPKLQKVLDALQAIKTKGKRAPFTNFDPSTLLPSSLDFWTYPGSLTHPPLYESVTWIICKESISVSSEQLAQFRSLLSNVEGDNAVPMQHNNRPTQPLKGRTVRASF
Put plainly: stopped-flow CO2 hydrase assay. The format is biochemical.
Conditions: not given
From the text: stopped-flow CO2 hydrase assay on hCA I
For the compound `COc1ccc(C=C2SC(=O)N(CC(=O)O)C2=O)cc1` [3f, 2-(5-(4-methoxybenzylidene)-2,4-dioxothiazolidin-3-yl) acetic acid], the Ki is over 100 µM.

For the compound `O=C(O)CN1C(=O)SC(=Cc2ccccc2Cl)C1=O` [3d, 2-(5-(2-chlorobenzylidene)-2,4-dioxothiazolidin-3-yl)acetic acid], the Ki is over 100 µM.

In turn, `O=C(O)CN1C(=O)SC(=Cc2ccccc2)C1=O` [3a, 2-(5-benzylidene-2,4-dioxothiazolidin-3-yl)acetic acid] came in with a Ki of over 100 µM.

As to `O=C(O)CN1C(=O)SC(=Cc2ccc(Br)cc2)C1=O` [3e, 2-(5-(4-bromobenzylidene)-2,4-dioxothiazolidin-3-yl)acetic acid], the Ki was over 100 µM.

In turn, `Cc1ccc(C=C2SC(=O)N(CC(=O)O)C2=O)cc1` [3b] showed a Ki of over 100 µM.

Compound `COc1cccc(C=C2SC(=O)N(CC(=O)O)C2=O)c1` [3g, 2-(5-(3-methoxybenzylidene)-2,4-dioxothiazolidin-3-yl) acetic acid] came in with a Ki of over 100 µM.

`O=C(O)CN1C(=O)SC(=Cc2ccc(Cl)cc2)C1=O` [3c, 2-(5-(4-chlorobenzylidene)-2,4-dioxothiazolidin-3-yl)acetic acid] gave a Ki of over 100 µM.
